Experimental data published in PubChem BioAssay AID330 (DTP/NCI, 2004).
Values joined by “and” are separate entries in the source; they are usually repeats but may differ in a detail not shown here. Equal values may be shown once. Toxic doses and inconclusive results are not listed. How the source made its calls: active means survival T/C of 150% or more; inactive means T/C below 125% in these data.

Tested on: P388 leukemia ip, CD2F1 mice, survival T/C
Experiment: NCI In Vivo Anticancer Drug Screen. Data for tumor model P388 Leukemia (intraperitoneal) in CD2F1 (CDF1) mice
Settings: endpoint: median survival time, higher = longer survival
Procedure, shortened: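 Mice carrying the transplanted tumor received test compound or vehicle. Survival was recorded in each group, and the value is the treated-group measurement divided by that of the vehicle-treated control group.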

[1] = dose: 60.0 mg/kg/injection, schedule: Q01DX005 (ip), vehicle: saline with Tween-80
[2] = dose: 120.0 mg/kg/injection, schedule: Q01DX005 (ip), vehicle: saline with Tween-80
[3] = dose: 240.0 mg/kg/injection, schedule: Q01DX005 (ip), vehicle: saline with Tween-80
[4] = dose: 100.0 mg/kg/injection, schedule: Q04DX003 (ip), vehicle: Klucel (hydroxypropylcellulose) (HPC)
[5] = dose: 200.0 mg/kg/injection, schedule: Q04DX003 (ip), vehicle: Klucel (hydroxypropylcellulose) (HPC)
[6] = dose: 12.5 mg/kg/injection, schedule: Q01DX005 (ip), vehicle: saline with Tween-80
[7] = dose: 25.0 mg/kg/injection, schedule: Q01DX005 (ip), vehicle: saline with Tween-80
[8] = dose: 50.0 mg/kg/injection, schedule: Q01DX005 (ip), vehicle: saline with Tween-80
[9] = dose: 50.0 mg/kg/injection, schedule: Q01DX009 (ip), vehicle: saline
[10] = dose: 100.0 mg/kg/injection, schedule: Q01DX009 (ip), vehicle: saline
[11] = dose: 200.0 mg/kg/injection, schedule: Q01DX009 (ip), vehicle: saline
[12] = dose: 100.0 mg/kg/injection, schedule: Q01DX005 (ip), vehicle: saline with Tween-80
[13] = dose: 200.0 mg/kg/injection, schedule: Q01DX005 (ip), vehicle: saline with Tween-80
[14] = dose: 50.0 mg/kg/injection, schedule: Q01DX009 (ip), vehicle: Klucel (hydroxypropylcellulose) (HPC)

Measured: T/C

COC(=O)CC1(C(=O)OC)c2sc(-c3ccccc3OC)cc2N2CCCC21 (stereo unspecified)
inactive: dose: 0.63 mg/kg/injection, schedule: Q01DX009 (ip), vehicle: Klucel (hydroxypropylcellulose) (HPC) 106 % of control | dose: 1.25 mg/kg/injection, schedule: Q01DX009 (ip), vehicle: Klucel (hydroxypropylcellulose) (HPC) 102 % of control | dose: 2.5 mg/kg/injection, schedule: Q01DX009 (ip), vehicle: Klucel (hydroxypropylcellulose) (HPC) 102 % of control | dose: 5.0 mg/kg/injection, schedule: Q01DX009 (ip), vehicle: Klucel (hydroxypropylcellulose) (HPC) 100 % of control | dose: 10.0 mg/kg/injection, schedule: Q01DX009 (ip), vehicle: Klucel (hydroxypropylcellulose) (HPC) 105 % of control

N#CC(C(=O)C(=O)Nc1ccc(Cl)c(Cl)c1)c1c(Cl)cccc1Cl (stereo unspecified)
inactive: [1] 102 % of control | [2] 97 % of control | [3] 89 % of control

CCN(CC)CCCC(C)NCC#CCNC(C)CCCN(CC)CC (stereo unspecified)
inactive: dose: 1.56 mg/kg/injection, schedule: Q01DX009 (ip), vehicle: water 105 % of control | dose: 3.13 mg/kg/injection, schedule: Q01DX009 (ip), vehicle: water 108 % of control | dose: 6.25 mg/kg/injection, schedule: Q01DX009 (ip), vehicle: water 104 % of control | dose: 12.5 mg/kg/injection, schedule: Q01DX009 (ip), vehicle: water 105 % of control

CC(=O)OC1C2=C(C)C(=O)OC2=CC2=CCCC(C)C21C (stereo unspecified)
inactive: dose: 4.0 mg/kg/injection, schedule: Q01DX009 (ip), vehicle: Klucel (hydroxypropylcellulose) (HPC) 102 % of control | dose: 8.0 mg/kg/injection, schedule: Q01DX009 (ip), vehicle: Klucel (hydroxypropylcellulose) (HPC) 91 % of control | dose: 16.0 mg/kg/injection, schedule: Q01DX009 (ip), vehicle: Klucel (hydroxypropylcellulose) (HPC) 102 % of control | dose: 32.0 mg/kg/injection, schedule: Q01DX009 (ip), vehicle: Klucel (hydroxypropylcellulose) (HPC) 109 % of control

C=CCn1c(NCCN(CC)CC)nc2ccc(Cl)cc2c1=O
inactive: dose: 12.5 mg/kg/injection, schedule: Q01DX009 (ip), vehicle: saline sonified 100 % of control | dose: 25.0 mg/kg/injection, schedule: Q01DX009 (ip), vehicle: saline sonified 104 % of control | dose: 50.0 mg/kg/injection, schedule: Q01DX009 (ip), vehicle: saline sonified 104 % of control

COc1ccc(-c2nn(C)c3c2C(=O)CCC3)cc1OC
inactive: [4] 94 % of control | [5] 99 % of control

Cc1cc2ccccc2c[n+]1CCCCCCCCI
inactive: dose: 6.25 mg/kg/injection, schedule: Q01DX005 (ip), vehicle: saline with Tween-80 110 % of control | [6] 115 % of control | [7] 110 % of control | [8] 108 % of control

Cc1ccc(O)c(C2CC(=O)NC(NC#N)=N2)c1 (stereo unspecified)
inactive: [9] 103 % of control | [10] 101 % of control | [11] 101 % of control

C=C1C(=O)O[C@@H]2/C=C(/C)[C@@H](OC(C)=O)C/C=C(\C)C(O)[C@@H](OC(=O)/C(C)=C\C)C12 (stereo partly specified)
inactive: dose: 25.0 mg/kg/injection, schedule: Q04DX002 (ip), vehicle: saline with Tween-80 105 % of control | dose: 50.0 mg/kg/injection, schedule: Q04DX002 (ip), vehicle: saline with Tween-80 105 % of control | dose: 100.0 mg/kg/injection, schedule: Q04DX002 (ip), vehicle: saline with Tween-80 104 % of control | dose: 200.0 mg/kg/injection, schedule: Q04DX002 (ip), vehicle: saline with Tween-80 97 % of control

CCN(CC)CCCC(C)N=C(Nc1ccccc1)c1ccc(Cl)cc1 (stereo unspecified)
inactive: dose: 50.0 mg/kg/injection, schedule: Q01DX005 (ip), vehicle: saline 104 % of control | dose: 100.0 mg/kg/injection, schedule: Q01DX005 (ip), vehicle: saline 102 % of control

O=C1CS(=O)(=O)C(c2cccc(Cl)c2)N1N1C(=O)CS(=O)(=O)C1c1cccc(Cl)c1 (stereo unspecified)
inactive: [8] 92 % of control | [12] 100 % of control | [13] 92 % of control

NNS(=O)(=O)c1ccc2ccccc2c1
inactive: dose: 12.5 mg/kg/injection, schedule: Q01DX009 (ip), vehicle: other 102 % of control | dose: 25.0 mg/kg/injection, schedule: Q01DX009 (ip), vehicle: other 102 % of control and 86 % of control | dose: 50.0 mg/kg/injection, schedule: Q01DX009 (ip), vehicle: other 86 % of control | dose: 100.0 mg/kg/injection, schedule: Q01DX009 (ip), vehicle: other 102 % of control and 95 % of control | dose: 200.0 mg/kg/injection, schedule: Q01DX009 (ip), vehicle: other 101 % of control and 95 % of control

CCN(CC)CCNc1cc2c(c3c(=O)c4ccccc4sc13)CCCC2
inactive: dose: 7.8 mg/kg/injection, schedule: Q01DX005 (ip), vehicle: other 101 % of control | dose: 15.6 mg/kg/injection, schedule: Q01DX005 (ip), vehicle: other 113 % of control | dose: 31.3 mg/kg/injection, schedule: Q01DX005 (ip), vehicle: other 104 % of control | dose: 62.5 mg/kg/injection, schedule: Q01DX005 (ip), vehicle: other 113 % of control | dose: 125.0 mg/kg/injection, schedule: Q01DX005 (ip), vehicle: other 101 % of control

O=C(/C=C/c1cccnc1)/C=C/c1cccnc1
inactive: dose: 6.25 mg/kg/injection, schedule: Q01DX009 (ip), vehicle: Klucel (hydroxypropylcellulose) (HPC) 122 % of control | dose: 12.5 mg/kg/injection, schedule: Q01DX009 (ip), vehicle: Klucel (hydroxypropylcellulose) (HPC) 124 % of control | dose: 25.0 mg/kg/injection, schedule: Q01DX009 (ip), vehicle: Klucel (hydroxypropylcellulose) (HPC) 124 % of control | [14] 120 % of control

N#CCCP(=O)(O)CO
inactive: [9] 106 % of control | [10] 100 % of control | [11] 92 % of control

CCCCCCCCCN1CCS(=O)(=O)CC1
inactive: [14] 94 % of control | dose: 100.0 mg/kg/injection, schedule: Q01DX009 (ip), vehicle: Klucel (hydroxypropylcellulose) (HPC) 98 % of control | dose: 200.0 mg/kg/injection, schedule: Q01DX009 (ip), vehicle: Klucel (hydroxypropylcellulose) (HPC) 103 % of control

COc1cc(N(C)c2cc(=O)n(C)c(=O)[nH]2)ccc1C
inactive: [6] 101 % of control | [7] 101 % of control | [8] 100 % of control and 94 % of control

Cn1c2ccccc2c(=O)c2c(O)cc3c(c21)N=CC(C)(C)O3
inactive: [1] 96 % of control | [2] 93 % of control | [3] 93 % of control

COc1ccc2nc(-c3ccccc3)cc(C(=O)/C=C/c3ccc(N(C)C)cc3)c2c1
inactive: [8] 89 % of control | [12] 86 % of control | [13] 89 % of control

CCOC(=O)CNC1CC(O[C@H]2C[C@](O)(C(C)=O)Cc3c(O)c4c(c(O)c32)C(=O)c2c(OC)cccc2C4=O)OC(C)C1O (stereo partly specified)
inactive: dose: 25.0 mg/kg/injection, schedule: Q04DX003 (ip), vehicle: Klucel (hydroxypropylcellulose) (HPC) 103 % of control | dose: 50.0 mg/kg/injection, schedule: Q04DX003 (ip), vehicle: Klucel (hydroxypropylcellulose) (HPC) 110 % of control | [4] 109 % of control | [5] 100 % of control

Cn1c(Br)c(C=O)c2ccccc21
inactive: dose: 100.0 mg/kg/injection, schedule: Q01DX001 (ip), vehicle: Klucel (hydroxypropylcellulose) (HPC) 100 % of control | dose: 200.0 mg/kg/injection, schedule: Q01DX001 (ip), vehicle: Klucel (hydroxypropylcellulose) (HPC) 102 % of control | dose: 400.0 mg/kg/injection, schedule: Q01DX001 (ip), vehicle: Klucel (hydroxypropylcellulose) (HPC) 105 % of control

OCC1OC(OCC2OC(OC3(CO)OC(CO)C(O)C3O)C(O)C(O)C2O)C(O)C(O)C1O (stereo unspecified)
inactive: dose: 100.0 mg/kg/injection, schedule: Q01DX001 (ip), vehicle: saline 102 % of control | dose: 200.0 mg/kg/injection, schedule: Q01DX001 (ip), vehicle: saline 103 % of control | dose: 400.0 mg/kg/injection, schedule: Q01DX001 (ip), vehicle: saline 93 % of control
